Among the data in US4927565A, “5-substituted amino-4-hydroxy-pentenoic acid derivatives and their use” (Banyu Pharmaceutical Co., Ltd., priority 1986, dated 1990) are IC50 values, retold here.

The structures appear in SMILES notation.

The experiment concerns the target T1, Human plasma renin (Homo sapiens, UniProt P00797).
T1 construct: from tissue; host or cells: human plasma
T1 sequence (P00797 67-406): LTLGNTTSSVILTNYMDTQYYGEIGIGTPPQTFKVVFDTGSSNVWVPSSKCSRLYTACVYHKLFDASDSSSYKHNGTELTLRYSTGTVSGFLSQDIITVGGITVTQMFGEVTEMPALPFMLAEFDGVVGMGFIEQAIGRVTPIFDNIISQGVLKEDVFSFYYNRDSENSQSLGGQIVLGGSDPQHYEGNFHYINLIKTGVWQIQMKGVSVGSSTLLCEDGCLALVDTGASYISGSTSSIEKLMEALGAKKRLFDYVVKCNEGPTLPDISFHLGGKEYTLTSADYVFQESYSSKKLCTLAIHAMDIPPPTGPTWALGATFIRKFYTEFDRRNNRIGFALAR
Put plainly: Human plasma renin inhibiting activities (angiotensin I measured by radio immunoassay). The format is biochemical. As to conditions: pH7.4, 37° C., one hour, read-out: 50% inhibition concentration IC50. The protocol: To 156 μl of a 0.2M sodium phosphate buffer solution (pH7.4), 40 μl of a solution mixture of 43 mM 8-hydroxyquinoline and 100 mM disodium ethylenediamine tetraacetate, 4 μl of dimethyl sulfoxide or a dimethyl sulfoxide solution of an inhibitor and 200 μl of human plasma were added and reacted at 37° C. for one hour. Then, pepstatin was added thereto to terminate the reaction, and the amount of the resulting angiotension I was measured by radio immunoassay whereby the inhibiting activity was determined.
Turning to `CCCC[C@H](NC(=O)[C@H](Cc1cccc2ccccc12)NC(=O)OCc1ccccc1)C(=O)N[C@@H](CC(C)C)[C@@H](O)/C=C(/CC)C(=O)NCC(C)C` [Compound C, (4S,5S)-5-(L-N-benzyloxycarbonylnaphthylalanyl-L-norleucyl)amino-2-ethyl-4-hydroxy-7-methyl-2(Z)-octenoic acid isobutylamide], the IC50 turned out to be 0.067 µM.
For `CCCC[C@H](NC(=O)[C@H](Cc1cccc2ccccc12)NC(=O)OCc1ccccc1)C(=O)N[C@@H](CC(C)C)[C@@H](O)/C=C(\CCC)C(=O)NCC(C)C` [Compound D, (4S,5S)-5-(L-N-benzyloxycarbonylnaphthylalanyl-L-norleucyl)amino-4-hydroxy-2-propyl-7-methyl-2(E)-octenoic acid isobutylamide], the IC50 was determined as 0.12 µM.
Consider `CCCC[C@H](NC(=O)[C@H](Cc1cccc2ccccc12)NC(=O)OCc1ccccc1)C(=O)N[C@@H](CC(C)C)[C@@H](O)/C=C(/C(=O)NCC(C)C)C(C)C` [Compound F, (4S,5S)-5-(L-N-benzyloxycarbonylnaphthylalanyl-L-norleucyl)amino-4-hydroxy-2-isopropyl-7-methyl-2(E)-octenoic acid isobutylamide], for which the IC50 stood at 0.15 µM.
On to `CCCC[C@H](NC(=O)[C@H](Cc1cccc2ccccc12)NC(=O)OCc1ccccc1)C(=O)N[C@@H](CC(C)C)[C@@H](O)/C=C(\C(=O)NCC(C)C)C(C)C` [Compound G, (4S,5S)-5-(L-N-benzyloxycarbonylnaphthylalanyl-L-norleucyl)amino-4-hydroxy-2-isopropyl-7-methyl-2(Z)-octenoic acid isobutylamide], for which the IC50 is 0.26 µM.
On to `CCCC[C@H](NC(=O)[C@H](Cc1cccc2ccccc12)NC(=O)OCc1ccccc1)C(=O)N[C@@H](CC(C)C)[C@@H](O)/C=C(/CCC)C(=O)NCC(C)C` [Compound E, (4S,5S)-5-(L-N-benzyloxycarbonylnaphthylalanyl-L-norleucyl)amino-4-hydroxy-2-propyl-7-methyl-2(Z)-octenoic acid isobutylamide], for which the IC50 was determined as 0.31 µM.
As for `CCCC[C@H](NC(=O)[C@H](Cc1cccc2ccccc12)NC(=O)OCc1ccccc1)C(=O)N[C@@H](CC(C)C)[C@@H](O)/C=C(\CC)C(=O)NCC(C)C` [Compound B, (4S,5S)-5-(L-N-benzyloxycarbonylnaphthylalanyl-L-norleucyl)amino-4-hydroxy-2-ethyl-7-methyl-2(E)-octenoic acid isobutylamide], the IC50 amounted to 0.019 µM.
With `CCCC[C@H](NC(=O)[C@H](Cc1cccc2ccccc12)NC(=O)OCc1ccccc1)C(=O)N[C@@H](CC(C)C)[C@@H](O)/C=C(\CCCO)C(=O)NCC(C)C` [Compound H, (4S,5S)-5-(L-N-benzyloxycarbonylnaphthylalanyl-L-norleucyl)-amino-4-hydroxy-2-(3-hydroxypropyl)-7-methyl-2(E)-octenoic acid isobutylamide], the IC50 was 0.16 µM.
The figure for `CCCC[C@H](NC(=O)[C@H](Cc1cccc2ccccc12)NC(=O)OCc1ccccc1)C(=O)N[C@@H](CC(C)C)[C@@H](O)/C=C/C(=O)NCC(C)C` [Compound A, (4S,5S)-5-(L-N-benzyloxycarbonylnaphthylalanyl-L-norleucyl)amino-4-hydroxy-7-methyl-2(E)-octenoic acid isobutylamide] is 1.4 µM.
